61 compounds from the Kinase Knowledgebase extract (Sharma et al. 2016) can be followed below.

What is called IC50 is the concentration at which inhibition is half-maximal. As a reminder, the inhibition is how much of the control response was suppressed.

SMILES strings stand for the structures.

The first test deals with CDK2 (UniProt P24941). The test is described as follows: Enzyme Assay.
Settings: not given
For the compound `COc1ccccc1-c1cc(Nc2ccc(NC(=O)NC3CCCCC3)cc2)ncn1`, the concentration for half-maximal inhibition (IC50) lay within 1 to 10 µM.
On the same count and under the same terms, next, `CCN(CC)CCC(=O)Nc1ccc(Nc2cc(-c3ccccc3OC)ncn2)cc1`: 1 to 10 µM; `Nc1ccc(C(=O)Nc2ccc(Nc3cc(-c4ccccc4OCc4ccccc4)ncn3)cc2)cc1`: 1 to 10 µM.
On the same count and under the same terms, next, `COc1ccccc1-c1cc(Nc2ccc(NC(=O)CC3CCCCN3)cc2)ncn1` (stereo not given): 1 to 10 µM.
The same measure, in the same setting: next, `CNC(C)(C)C(=O)Nc1ccc(Nc2cc(-c3ccccc3OC)ncn2)cc1`: 1 to 10 µM; `COc1ccccc1-c1cc(Nc2ccc(NC(=O)[C@@H](N)c3ccccc3)cc2)ncn1`: 1 to 10 µM; `COc1ccccc1-c1cc(Nc2ccc(C(=O)NC3CCCNC3)cc2)ncn1` (stereo not given): 0.001 to 1 µM.
Turning to `COc1ccccc1-c1cc(Nc2ccc(NC(C)=O)cc2)ncn1`, the concentration for half-maximal inhibition (IC50) is 0.001 to 1 µM.
Still for that read-out and setting: next, `COc1ccccc1-c1cc(Nc2ccc(N3CCCC3=O)cc2)ncn1`: 0.001 to 1 µM.
As for `COc1ccccc1-c1cc(Nc2ccc(NS(=O)(=O)c3ccc(C)cc3)cc2)ncn1`, the IC50 lay in the range of 0.001 to 1 µM.
On the same count and under the same terms, next, `Cc1ccc(Nc2cc(-c3cccc(N)c3)ncn2)cc1NS(=O)(=O)c1cn(C)cn1`: 0.001 to 1 µM; `CC(C)(C)C(=O)Nc1ccc(Nc2cc(Cl)ncn2)cc1`: 10 to 250 µM.
Still for that read-out and setting: next, `COC(=O)c1ccc(Nc2cc(-c3ccccc3OC)ncn2)cc1`: 0.001 to 1 µM; `CCCCNS(=O)(=O)c1cccc(Nc2cc(-c3ccccc3OC)ncn2)c1`: 1 to 10 µM; `COc1ccccc1-c1cc(Nc2ccc(NC(=O)Nc3ccc4c(c3)OCO4)cc2)ncn1`: 10 to 250 µM.
The same measure, in the same setting: next, `Cc1ccc(Nc2cc(-c3cccc(N)c3)ncn2)cc1NS(=O)(=O)c1cccc2cccnc12`: 10 to 250 µM; `COc1cccc(OC)c1-c1cc(Nc2ccc(NC(=O)c3ccc(N)cc3)cc2)ncn1`: 10 to 250 µM.
On to `Cc1ccc(S(=O)(=O)Nc2ccc(Nc3cc(-c4cccc(/C=C/C(=O)O)c4)ncn3)cc2)cc1`, for which the IC50 lay in the range of 10 to 250 µM.
The same measure, in the same setting: next, `COc1ccccc1-c1cc(Nc2ccc(NS(=O)(=O)c3ccccc3)cc2)ncn1`: 0.001 to 1 µM.
Still for that read-out and setting: next, `CC(C)(C)C(=O)Nc1ccc(Nc2cc(NCCCO)ncn2)cc1`: 10 to 250 µM; `COc1ccccc1-c1cc(Nc2ccc(C(=O)Nc3ccc(C(C)C)cc3)cc2)ncn1`: 10 to 250 µM; `CSc1ccccc1-c1cc(Nc2ccc(NC(=O)[C@@H]3CCCCN3)cc2)ncn1`: 1 to 10 µM.
On the same count and under the same terms, next, `COc1ccccc1-c1cc(N(C)c2ccc(NS(=O)(=O)c3ccc(C)cc3)cc2)ncn1`: 1 to 10 µM; `Cc1ccc(Nc2cc(-c3cccc(CO)c3)ncn2)cc1NS(C)(=O)=O`: 1 to 10 µM.
Turning to `COc1ccccc1-c1cc(Nc2ccc(C(=O)Nc3ccc(N4CCOCC4)cc3)cc2)ncn1`, the IC50 was 1 to 10 µM.
The same measure, in the same setting: next, `COc1ccccc1-c1ncnc(Nc2ccc(N)cc2)c1C`: 10 to 250 µM.
On the same count and under the same terms, next, `N[C@@H]1CCCC[C@H]1NC(=O)c1ccc(Nc2cc(-c3ccccc3OCc3ccccc3)ncn2)cc1.N[C@H]1CCCC[C@@H]1NC(=O)c1ccc(Nc2cc(-c3ccccc3OCc3ccccc3)ncn2)cc1`: 0.001 to 1 µM.
As for `COc1cccc(-c2cc(Nc3ccc(NC(=O)c4ccc(N)cc4)cc3)ncn2)c1OC`, the IC50 was 1 to 10 µM.
The same measure, in the same setting: next, `COc1ccccc1-c1cc(NCCc2ccncc2)ncn1`: 10 to 250 µM; `COc1ccccc1-c1cc(Nc2ccc(NC(=O)NC(C)(C)C)cc2)ncn1`: 1 to 10 µM; `Oc1ccccc1-c1cc(NCCc2ccncc2)ncn1`: 10 to 250 µM.
Still for that read-out and setting: next, `COc1ccccc1-c1cc(Nc2cccc(C(N)=O)c2)ncn1`: 0.001 to 1 µM; `COC(=O)CN(c1ccc(Nc2cc(-c3ccc(O)cc3)ncn2)cc1)S(=O)(=O)c1ccc(C)cc1`: 0.001 to 1 µM; `Nc1ccc(C(=O)Nc2ccc(Nc3cc(-c4ccccc4O)ncn3)cc2)cc1`: 10 to 250 µM.
Same read-out and setting: next, `COc1ccccc1-c1cc(Nc2ccc(NC(=O)C(C)(C)C)cc2)ncn1`: 1 to 10 µM; `CC(C)(C)C(=O)Nc1ccc(Nc2cc(NCCN)ncn2)cc1`: 10 to 250 µM; `COc1ccccc1-c1cc(Nc2ccc(C)c(NS(C)(=O)=O)c2)ncn1`: 0.001 to 1 µM.
On to `COc1ccccc1-c1cc(Nc2ccc(NC(=O)C3CCN(C)CC3)cc2)ncn1`, for which the IC50 was 1 to 10 µM.
On the same count and under the same terms, next, `COc1ccccc1-c1cc(Nc2ccc(NC(=O)NCc3ccc(C)cc3)cc2)ncn1`: 10 to 250 µM.
Still for that read-out and setting: next, `Cc1ccc(Nc2cc(-c3cccc(N(C)C)c3)ncn2)cc1NS(C)(=O)=O`: 1 to 10 µM; `COc1ccccc1-c1cc(Nc2ccc(NC(=O)c3c[nH]c4ccccc34)cc2)ncn1`: 1 to 10 µM; `CS(=O)(=O)Nc1cccc(-c2cc(Nc3ccc(C(=O)N[C@@H]4CCCC[C@H]4N)cc3)ncn2)c1.CS(=O)(=O)Nc1cccc(-c2cc(Nc3ccc(C(=O)N[C@H]4CCCC[C@@H]4N)cc3)ncn2)c1`: 1 to 10 µM.
As for `COc1ccccc1-c1cc(Nc2ccc(NC(=O)C3(NC(=O)OC(C)(C)C)CCCC3)cc2)ncn1`, the IC50 was 10 to 250 µM.
Same read-out and setting: next, `COc1cccc(-c2cc(Nc3ccc(NC(=O)[C@@H]4CCCCN4)cc3)ncn2)c1OC`: 10 to 250 µM; `COc1ccccc1-c1cc(Nc2ccc(NC(=O)c3ccc(N)cc3)cc2)ncn1`: 1 to 10 µM.
On to `COc1ccccc1-c1cc(Nc2ccc(N)cc2C)ncn1`, for which the IC50 lay within 1 to 10 µM.
Still for that read-out and setting: next, `COc1ncccc1-c1cc(Nc2ccc(C)c(NS(C)(=O)=O)c2)ncn1`: 1 to 10 µM; `COc1ccccc1-c1cc(Nc2ccc(NS(=O)(=O)c3ccc(C(C)C)cc3)cc2)ncn1`: 1 to 10 µM.
In turn, `COc1ccccc1-c1cc(N(C)c2ccc(N)cc2)ncn1` yielded an IC50 of 1 to 10 µM.
Still for that read-out and setting: next, `COC(=O)/C=C/c1cccc(-c2cc(Nc3ccc(C)c(NS(C)(=O)=O)c3)ncn2)c1`: 1 to 10 µM.
Same read-out and setting: next, `COc1ccccc1-c1cc(Nc2ccc(-c3nc4ccccc4[nH]3)cc2)ncn1`: 0.001 to 1 µM; `Nc1cccc(-c2cc(NCCc3ccncc3)ncn2)c1`: 1 to 10 µM; `CCCS(=O)(=O)Nc1ccc(Nc2cc(-c3ccccc3OC)ncn2)cc1`: 0.001 to 1 µM.
On to `COc1ccccc1-c1cc(Nc2ccc(C(=O)N[C@@H]3CCCC[C@H]3O)cc2)ncn1.COc1ccccc1-c1cc(Nc2ccc(C(=O)N[C@H]3CCCC[C@@H]3O)cc2)ncn1`, for which the IC50 was 1 to 10 µM.
The compound `COc1ccccc1-c1cc(Nc2cccc(N)c2)ncn1` returned an IC50 of 0.001 to 1 µM.
The same measure, in the same setting: next, `COc1ccc(-c2cc(Nc3ccc(C)c(NS(C)(=O)=O)c3)ncn2)cc1`: 0.001 to 1 µM.
The same measure, in the same setting: next, `Nc1cccc(-c2cc(Nc3cccc(S(N)(=O)=O)c3)ncn2)c1`: 1 to 10 µM; `Nc1ccc(C(=O)Nc2ccc(Nc3cc(-c4cccs4)ncn3)cc2)cc1`: 10 to 250 µM; `Cc1ccc(S(=O)(=O)Nc2ccc(Nc3cc(-c4ccc(CCC(=O)O)cc4)ncn3)cc2)cc1`: 10 to 250 µM.
The same measure, in the same setting: next, `Nc1ccc(C(=O)Nc2ccc(Nc3cc(-c4ccc(O)cc4)ncn3)cc2)cc1`: 1 to 10 µM; `COc1ccccc1-c1cc(Nc2ccc(NS(=O)(=O)C(C)C)cc2)ncn1`: 0.001 to 1 µM.

In the next test the target is EGFR (UniProt P00533).
Chain of EGFR (P00533 whole entry, looked up): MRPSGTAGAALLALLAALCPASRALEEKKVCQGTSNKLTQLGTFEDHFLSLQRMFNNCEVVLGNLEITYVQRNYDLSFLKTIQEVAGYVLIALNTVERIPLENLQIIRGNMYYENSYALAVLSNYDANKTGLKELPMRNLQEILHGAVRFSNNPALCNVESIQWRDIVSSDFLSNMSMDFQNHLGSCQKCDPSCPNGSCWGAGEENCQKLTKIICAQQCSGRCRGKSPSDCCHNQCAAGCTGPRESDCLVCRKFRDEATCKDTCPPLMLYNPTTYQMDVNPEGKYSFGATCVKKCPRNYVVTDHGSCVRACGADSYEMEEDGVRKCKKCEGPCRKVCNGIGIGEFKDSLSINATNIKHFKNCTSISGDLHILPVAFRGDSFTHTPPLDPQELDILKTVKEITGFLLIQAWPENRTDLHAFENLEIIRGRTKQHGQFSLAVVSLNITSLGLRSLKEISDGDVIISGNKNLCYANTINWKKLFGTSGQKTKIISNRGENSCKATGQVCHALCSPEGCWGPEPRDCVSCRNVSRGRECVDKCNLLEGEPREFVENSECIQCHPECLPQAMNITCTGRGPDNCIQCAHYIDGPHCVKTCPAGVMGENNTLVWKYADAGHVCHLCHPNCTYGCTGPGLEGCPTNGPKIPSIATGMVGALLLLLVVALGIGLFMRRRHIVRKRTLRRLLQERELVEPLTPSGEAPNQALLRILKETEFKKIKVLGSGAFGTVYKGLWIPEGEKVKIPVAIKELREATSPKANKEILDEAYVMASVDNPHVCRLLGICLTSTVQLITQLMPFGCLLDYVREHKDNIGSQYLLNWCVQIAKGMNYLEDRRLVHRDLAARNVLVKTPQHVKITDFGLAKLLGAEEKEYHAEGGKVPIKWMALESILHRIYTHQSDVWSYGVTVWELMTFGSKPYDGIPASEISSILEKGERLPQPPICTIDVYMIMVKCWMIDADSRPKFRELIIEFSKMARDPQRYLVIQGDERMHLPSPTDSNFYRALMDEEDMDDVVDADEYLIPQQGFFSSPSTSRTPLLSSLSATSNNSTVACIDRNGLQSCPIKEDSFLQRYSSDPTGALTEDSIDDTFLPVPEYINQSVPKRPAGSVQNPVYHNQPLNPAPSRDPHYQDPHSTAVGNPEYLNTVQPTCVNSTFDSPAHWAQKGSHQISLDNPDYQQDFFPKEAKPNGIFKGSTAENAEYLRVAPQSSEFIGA
Assay: not given
The conditions noted are these: concentration not given here.
In turn, `COc1ccccc1-c1cc(Nc2ccc(NC(=O)NC3CCCCC3)cc2)ncn1` gave an inhibition of 30 to 50%.
Still for that read-out and setting: next, `CCN(CC)CCC(=O)Nc1ccc(Nc2cc(-c3ccccc3OC)ncn2)cc1`: over 80%; `Nc1ccc(C(=O)Nc2ccc(Nc3cc(-c4ccccc4OCc4ccccc4)ncn3)cc2)cc1`: 30 to 50%.
`COc1ccccc1-c1cc(Nc2ccc(NC(=O)CC3CCCCN3)cc2)ncn1` (stereo not given) yielded an inhibition of over 80%.
Compound `CNC(C)(C)C(=O)Nc1ccc(Nc2cc(-c3ccccc3OC)ncn2)cc1` showed an inhibition of over 80%.
Take `COc1ccccc1-c1cc(Nc2ccc(NC(=O)[C@@H](N)c3ccccc3)cc2)ncn1`: the inhibition fell in the range of 50 to 80%.
`COc1ccccc1-c1cc(Nc2ccc(C(=O)NC3CCCNC3)cc2)ncn1` (stereo not given) yielded an inhibition of over 80%.
As to `COc1ccccc1-c1cc(Nc2ccc(NC(C)=O)cc2)ncn1`, the inhibition lay within 50 to 80%.
Same read-out and setting: next, `COc1ccccc1-c1cc(Nc2ccc(N3CCCC3=O)cc2)ncn1`: 50 to 80%.
